In US12410171B2, “Tropomyosin receptor kinase (TRK) degradation compounds and methods of use” (Cullgen (Shanghai), Inc., priority 2020, dated 2025) one finds IC50 data, which are given here for 7 compounds.

In the test the test system is KM12 cells. The test can be described thus: KM12 cell viability (CellTiter-Glo). The following applies: Homo sapiens, 72 h; KM12 cell viability, 11-point 3-fold serial dilution, 3 days, CellTiter-Glo; read-out: IC50. Type of test: cell-based. As to the method:
KM12 or H358 cells were treated with 1000 nM CPD-053 following an 8-point 3-fold serial dilution for 3 days.
KM12 cells seeded in 96-well plates were treated with heterobifunctional compounds following a 11-point 3-fold serial dilution for 3 days.
KM12, H358, HEL, SU-DHL-1 and other cells were cultured at 37° C. with 5% CO2 in RPMI 1640 Medium supplemented with 10% fetal bovine serum. Cells were authenticated using the short tandem repeat (STR) assays. Mycoplasma test results were negative. Stable cell lines were established by lentivirus transduction, selected and maintained in medium containing 1 μg/mL puromycin (Beyotime Biotechnology).
Cells were seeded at a density of 5000 cells per well in 96-well assay plates and treated with test compounds following a 12-point 2-fold serial dilution or a 8-point 3-fold dilution, or 11-point 3-fold serial dilution. Three days later, cell viability was determined using the CellTiter-Glo assay kit (Promega) according to the manufacturer's instructions. The dose-response curves were determined and IC50 values were calculated using the GraphPad Prism software following a nonlinear regression (least squares fit) method.
(ATP-based viability assays read luminescence as a measure of living cells.)

SMILES strings stand for the structures. A value given as a limit tells only on which side of the number the result lay.

In the case of `NC(=O)C1CCN(c2cc(CN3CCN(C(=O)CCOCCOCCOCCOCCOCCNc4cccc5c4C(=O)N(C4CCC(=O)NC4=O)C5=O)CC3)ccc2NC(=O)c2coc(N3CCOCC3)n2)CC1` (stereo not shown) [CPD-489, N-(2-(4-carbamoylpiperidin-1-yl)-4-((4-(1-((2-(2,6-dioxopiperidin-3-yl)-1,3-dioxoisoindolin-4-yl)amino)-3,6,9,12,15-pentaoxaoctadecan-18-oyl)piperazin-1-yl)methyl)phenyl)-2-morpholinooxazole-4-carboxamide], the IC50 – broadly, the concentration needed to halve the response being measured – stood at 0.141 µM.
Consider `Cc1ncsc1-c1ccc(CNC(=O)[C@@H]2C[C@@H](O)CN2C(=O)[C@@H](NC(=O)CCC(=O)N2CCN(Cc3ccc(NC(=O)c4coc(N5CCOCC5)n4)c(N4CCC(C(N)=O)CC4)c3)CC2)C(C)(C)C)cc1` [CPD-490, N-(2-(4-carbamoylpiperidin-1-yl)-4-((4-(4-(((S)-1-((2S,4R)-4-hydroxy-2-((4-(4-methylthiazol-5-yl)benzyl)carbamoyl)pyrrolidin-1-yl)-3,3-dimethyl-1-oxobutan-2-yl)amino)-4-oxobutanoyl)piperazin-1-yl)methyl)phenyl)-2-morpholinooxazole-4-carboxamide], for which the IC50 was 2.8 µM.
With `Cc1ncsc1-c1ccc(CNC(=O)[C@@H]2C[C@@H](O)CN2C(=O)[C@@H](NC(=O)CCCCC(=O)N2CCN(Cc3ccc(NC(=O)c4coc(N5CCOCC5)n4)c(N4CCC(C(N)=O)CC4)c3)CC2)C(C)(C)C)cc1` [CPD-491, N-(2-(4-carbamoylpiperidin-1-yl)-4-((4-(6-(((S)-1-((2S,4R)-4-hydroxy-2-((4-(4-methylthiazol-5-yl)benzyl)carbamoyl)pyrrolidin-1-yl)-3,3-dimethyl-1-oxobutan-2-yl)amino)-6-oxohexanoyl)piperazin-1-yl)methyl)phenyl)-2-morpholinooxazole-4-carboxamide], the concentration for half-maximal inhibition (IC50) was 3.7 µM.
With `Cc1ncsc1-c1ccc(CNC(=O)[C@@H]2C[C@@H](O)CN2C(=O)[C@@H](NC(=O)CCCCCCC(=O)N2CCN(Cc3ccc(NC(=O)c4coc(N5CCOCC5)n4)c(N4CCC(C(N)=O)CC4)c3)CC2)C(C)(C)C)cc1` [CPD-492, N-(2-(4-carbamoylpiperidin-1-yl)-4-((4-(8-(((S)-1-((2S,4R)-4-hydroxy-2-((4-(4-methylthiazol-5-yl)benzyl)carbamoyl)pyrrolidin-1-yl)-3,3-dimethyl-1-oxobutan-2-yl)amino)-8-oxooctanoyl)piperazin-1-yl)methyl)phenyl)-2-morpholinooxazole-4-carboxamide], the IC50 is 0.178 µM.
The figure for `Cc1ncsc1-c1ccc(CNC(=O)[C@@H]2C[C@@H](O)CN2C(=O)[C@@H](NC(=O)CCOCCC(=O)N2CCN(Cc3ccc(NC(=O)c4coc(N5CCOCC5)n4)c(N4CCC(C(N)=O)CC4)c3)CC2)C(C)(C)C)cc1` [CPD-494] is over 10 µM; for `Cc1ncsc1-c1ccc(CNC(=O)[C@@H]2C[C@@H](O)CN2C(=O)[C@@H](NC(=O)CCOCCOCCC(=O)N2CCN(Cc3ccc(NC(=O)c4coc(N5CCOCC5)n4)c(N4CCC(C(N)=O)CC4)c3)CC2)C(C)(C)C)cc1` [CPD-495] it is over 10 µM; for `Cc1ncsc1-c1ccc(CNC(=O)[C@@H]2C[C@@H](O)CN2C(=O)[C@@H](NC(=O)CCOCCOCCOCCC(=O)N2CCN(Cc3ccc(NC(=O)c4coc(N5CCOCC5)n4)c(N4CCC(C(N)=O)CC4)c3)CC2)C(C)(C)C)cc1` [CPD-496, N-(2-(4-carbamoylpiperidin-1-yl)-4-((4-((S)-15-((2S,4R)-4-hydroxy-2-((4-(4-methylthiazol-5-yl)benzyl)carbamoyl)pyrrolidine-1-carbonyl)-16,16-dimethyl-13-oxo-4,7,10-trioxa-14-azaheptadecanoyl)piperazin-1-yl)methyl)phenyl)-2-morpholinooxazole-4-carboxamide] it is 8.76 µM.
